Results on seven compounds are retold here after patent publication US20230072421A1, “TARGETED RADIOPHARMACEUTICALS FOR THE DIAGNOSIS AND TREATMENT OF PROSTATE CANCER” (Bayer AS, priority 2019, published 2023).

The test deals with T1, PSMA-expressing LNCaP cells (Homo sapiens, UniProt Q04609).
T1 construct: PSMA-expressing LNCaP cells; endogenous in cells; host or cells: LNCaP
Briefly: Binding competition assay against 3H-PSMA-617 on LNCaP cells. The conditions noted are these: for remaining activity at 0.01 µM / remaining activity at 0.1 µM: LNCaP cells, 10 nM 3H-PSMA-617, 2 h at 37° C., triplicates; for remaining activity at 0.01 µM: competing non-radiolabeled compound 10 nM; for remaining activity at 0.1 µM: competing non-radiolabeled compound 100 nM; for competition against 3H-PSMA-617 on PSMA-expressing LNCaP cells (in words): comparison between examples. An outline of the steps:
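Compounds added to LNCaP cells in growth medium, 2 h at 37 °C, 5% CO2. After two ice-cold PBS washes, cells lysed in 0.3 M NaOH and bound radioactivity measured by liquid scintillation counting.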

T1 sequence (Q04609 whole entry): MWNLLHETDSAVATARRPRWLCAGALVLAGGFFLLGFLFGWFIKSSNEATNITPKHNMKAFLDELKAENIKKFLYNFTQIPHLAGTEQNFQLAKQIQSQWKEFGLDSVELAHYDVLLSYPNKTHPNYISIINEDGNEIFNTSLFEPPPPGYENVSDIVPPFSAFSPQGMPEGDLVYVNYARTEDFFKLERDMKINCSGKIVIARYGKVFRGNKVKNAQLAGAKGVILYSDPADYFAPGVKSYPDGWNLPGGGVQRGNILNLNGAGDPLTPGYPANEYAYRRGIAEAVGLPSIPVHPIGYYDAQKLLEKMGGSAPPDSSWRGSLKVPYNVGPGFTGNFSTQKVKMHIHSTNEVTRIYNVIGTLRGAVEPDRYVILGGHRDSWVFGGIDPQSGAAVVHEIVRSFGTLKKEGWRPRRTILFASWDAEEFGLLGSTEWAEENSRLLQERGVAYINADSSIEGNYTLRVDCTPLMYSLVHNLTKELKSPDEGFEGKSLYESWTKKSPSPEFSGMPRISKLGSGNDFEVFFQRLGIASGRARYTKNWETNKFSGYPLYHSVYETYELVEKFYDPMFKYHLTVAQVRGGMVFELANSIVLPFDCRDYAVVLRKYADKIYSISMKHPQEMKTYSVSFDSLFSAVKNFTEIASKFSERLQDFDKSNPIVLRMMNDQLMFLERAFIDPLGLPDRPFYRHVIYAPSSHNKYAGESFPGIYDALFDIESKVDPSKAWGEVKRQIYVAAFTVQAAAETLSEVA

Regarding `COc1c(C[C@@H](NC(=O)[C@H]2CC[C@H](CN)CC2)C(=O)NCCCC[C@H](NC(=O)N[C@@H](CCC(=O)O)C(=O)O)C(=O)O)ccc2ccccc12` [Example 33-A, (3R,10S,14S)-1-[(1r,4S)-4-(aminomethyl)cyclohexyl]-3-[(1-methoxynaphthalen-2-yl)methyl]-1,4,12-trioxo-2,5,11,13-tetraazahexadecane-10,14,16-tricarboxylic acid], the remaining activity (as a rule, the signal under treatment as a percentage of the control signal) at 0.01 µM was 66% and the remaining activity at 0.1 µM is 72%.

Regarding `COc1c(C[C@@H](NC(=O)[C@H]2CC[C@H](CNC(=O)CN3CCN(CC(=O)O)CCN(CC(=O)O)CCN(CC(=O)O)CC3)CC2)C(=O)NCCCC[C@H](NC(=O)N[C@@H](CCC(=O)O)C(=O)O)C(=O)O)ccc2ccccc12` [Example 33-B, (3R,10S,14S)-3-[(1-methoxynaphthalen-2-yl)methyl]-1,4,12-trioxo-1-[(1r,4S)-4-({2-[4,7,10-tris(carboxymethyl)-1,4,7,10-tetraazacyclododecan-1-yl]acetamido}methyl)cyclohexyl]-2,5,11,13-tetraazahexadecane-10,14,16-tricarboxylic acid], the remaining activity at 0.01 µM was found to be 114% and the remaining activity at 0.1 µM worked out at 40%.

As to `COc1c(C[C@@H](NC(=O)c2ccc(CNC(=O)CN3CCN(CC(=O)O)CCN(CC(=O)O)CCN(CC(=O)O)CC3)cn2)C(=O)NCCCC[C@H](NC(=O)N[C@@H](CCC(=O)O)C(=O)O)C(=O)O)ccc2ccccc12` [Example 33a-B, (3R,10S,14S)-3-[(1-methoxynaphthalen-2-yl)methyl]-1,4,12-trioxo-1-[5-({2-[4,7,10-tris(carboxymethyl)-1,4,7,10-tetraazacyclododecan-1-yl]acetamido}methyl)pyridin-2-yl]-2,5,11,13-tetraazahexadecane-10,14,16-tricarboxylic acid], the remaining activity at 0.01 µM was 74% and the remaining activity at 0.1 µM amounted to 42%.

Regarding `NCc1ccc(C(=O)N[C@@H](Cc2ccc3ccccc3n2)C(=O)NCCCC[C@H](NC(=O)N[C@@H](CCC(=O)O)C(=O)O)C(=O)O)nc1` [Example 34-A, N^6—{N-[5-(aminomethyl)pyridine-2-carbonyl]-3-(quinolin-2-yl)-L-alanyl}-N^2-{[(1S)-1,3-dicarboxypropyl]carbamoyl}-L-lysine], the remaining activity at 0.01 µM came to 50%, the remaining activity at 0.1 µM was 9% and the “competition against 3H-PSMA-617 on PSMA-expressing LNCaP cells (in words)” value was “improved competition”.

Take `O=C(O)CC[C@H](NC(=O)N[C@@H](CCCCNC(=O)[C@H](Cc1ccc2ccccc2n1)NC(=O)c1ccc(CNC(=O)CN2CCN(CC(=O)O)CCN(CC(=O)O)CCN(CC(=O)O)CC2)cn1)C(=O)O)C(=O)O` [Example 34-B, N^6-{3-(quinolin-2-yl)-N-[5-({2-[4,7,10-tris(carboxymethyl)-1,4,7,10-tetraazacyclododecan-1-yl]acetamido}methyl)pyridine-2-carbonyl]-L-alanyl}-N^2-{[(1S)-1,3-dicarboxypropyl]carbamoyl}-L-lysine]: the remaining activity at 0.01 µM amounted to 43%, the remaining activity at 0.1 µM was found to be 6% and the “competition against 3H-PSMA-617 on PSMA-expressing LNCaP cells (in words)” value was “improved competition”.

In the case of `CNCC[C@H]1CC[C@H](C(=O)N[C@H](Cc2cc(OC)c3ccccc3c2)C(=O)NCCCC[C@H](NC(=O)N[C@@H](CCC(=O)O)C(=O)O)C(=O)O)CC1` [Example 35-A, (3R,10S,14S)-3-[(4-methoxynaphthalen-2-yl)methyl]-1-{(1r,4S)-4-[2-(methylamino)ethyl]cyclohexyl}-1,4,12-trioxo-2,5,11,13-tetraazahexadecane-10,14,16-tricarboxylic acid], the remaining activity at 0.01 µM turned out to be 113% and the remaining activity at 0.1 µM is 60%.

On to `NC[C@H]1CC[C@H](C(=O)N[C@@H](Cc2cc3ccccc3cn2)C(=O)NCCCC[C@H](NC(=O)N[C@@H](CCC(=O)O)C(=O)O)C(=O)O)CC1` [Example 36-A, N^6—{N-[(1r,4S)-4-(aminomethyl)cyclohexane-1-carbonyl]-3-(isoquinolin-3-yl)-L-alanyl}-N^2-{[(1S)-1,3-dicarboxypropyl]carbamoyl}-L-lysine], for which the remaining activity at 0.01 µM came to 98% and the remaining activity at 0.1 µM came to 73%.
